Measured values taken from US7399823B1, “Antimicrobial theta defensins and methods of using same” (The Regents of the University of California, priority 2000, dated 2008).
Marks after values point to notes of the source that are not given here. Positions of bridges follow the written chain, without caps; N, C: chain ends. Residues, ends and D or L forms follow the SMILES beside them.

Experiments:
Type in all cases: cell-based
[1] = system: Escherichia coli ML35; experiment: Microbicidal suspension assay, killing quantified by colony counts; conditions: for % killed: 2 h, 37 C.
Experimental: Additional antimicrobial assays were conducted on other microbial organisms. […] In FIG. 9A, S. aureus 502a was incubated with increasing concentrations of natural or synthetic peptide for 30 min at 37° C. in 10 mM PIPES, pH 7.4, containing 5 mM glucose. Killing was quantified by colony counts. […] The limit of detection (1 colony per plate) was equal to 1×10^3 colony forming units in the incubation mixture.
(§1) An acyclic version of theta defensin was also tested for antimicrobial activity. […] Killing activity was quantified by colony counts after 18 hrs.
(§2) The microbicidal activity in the presence of physiological salt concentrations was tested against various microorganisms in various buffers.

[2] = system: Candida albicans; experiment: as above
[3] = system: Listeria monocytogenes EDG; experiment: as above; conditions: for % killed: RTD-1 10 mg/ml, 2 h, 37 C.
[4] = system: Salmonella typhimurium, PhoP^−; experiment: as above; conditions: 2 hr, 10 mM PIPES, pH 7.4, 5 mM glucose; FIG. 9
[5] = system: Cryptococcus neoformans 271a; experiment: as above; conditions: for % killed: RTD-1 10 mg/ml, 2 h, 37 C.
[6] = system: Staphylococcus aureus 502a; experiment: as above; conditions: for % killed: 37 C.
Experimental: Killing was quantified by colony counts.
Additional antimicrobial assays were conducted on other microbial organisms. […] In FIG. […] Killing was quantified by colony counts. […] The limit of detection (1 colony per plate) was equal to 1×10^3 colony forming units in the incubation mixture.
It has been proposed that salt sensitivity of airway defensins underlies the susceptibility of cystic fibrosis patients to pulmonary infections.
as §1, §2

[7] = system: Cryptococcus neoformans; experiment: Agar diffusion assay; conditions: 10, 30, 100 or 300 μg/ml; agar seeded with 1×10^6 colony forming units
Excerpt: (§3) Agar diffusion assays and microbicidal suspension assays were used to examine the activity of theta defensin against Staphylococcus aureus 502A, Escherichia coli ML35, Listeria monocytogenes, and Cryptococcus neoformans.

[8] = system: Listeria monocytogenes; experiment: Agar diffusion assay; conditions: 10, 30, 100 or 300 μg/ml; agar seeded with 1×10^6 colony forming units
Excerpt: as §3

[9] = system: Staphylococcus aureus 502a; experiment: Agar diffusion assay
Experimental: (§4) The purified chromatographic peaks were screened for antibacterial activity against Escherichia coli ML35 and Staphylococcus aureus 502a. Briefly, antibacterial activity was screened with an agar diffusion assay using lyophilized samples of HPLC fractions dissolved in 5 μl of 0.01% acetic acid as described by Lehrer et al., J. Immunol. Methods 137:167-173 (1991)).
as §3

[10] = system: Escherichia coli ML35; experiment: Agar diffusion assay
Experimental: as §4, §3

[11] = 2 hr, 10 mM PIPES, pH 7.4, 5 mM glucose, FIG. 9
[12] = 10 mM PIPES, pH 7.4, 5 mM glucose, 150 mM NaCl
[13] = 10, 30, 100 or 300 μg/ml, agar seeded with 1×10^6 colony forming units

SMILES: CC[C@H](C)[C@@H]1NC(=O)[C@@H]2CSSC[C@H](NC(=O)[C@H](CCCNC(=N)N)NC(=O)[C@@H]3CSSC[C@H](NC1=O)C(=O)N[C@@H]([C@@H](C)O)C(=O)N[C@@H](CCCNC(=N)N)C(=O)NCC(=O)N[C@@H](Cc1ccccc1)C(=O)N3)C(=O)N[C@@H](CC(C)C)C(=O)N[C@H]1CSSC[C@H](NC(=O)[C@H](C(C)C)NC(=O)CNC(=O)[C@H](CCCNC(=N)N)NC(=O)[C@H](CCCNC(=N)N)NC1=O)C(=O)N[C@@H](CCCNC(=N)N)C(=O)N2 [RTD-1] (cyclo(GFCRCLCRRGVCRCICTR); disulfide 3-16, 5-14, 7-12)
- microbicidal activity (killing) [1, 11]: killed
- % killed ([1]; RTD-1 25 mg/ml, 10 mM Tris-HCl, pH 7.4, 25% human AB serum): >99* %
- % killed ([1]; RTD-1, 10 mM PIPES, pH 7.4, 5 mM glucose, 150 mM NaCl): >99%
- % killed ([1]; RTD-1, 10 mM Tris-HCl, pH 7.4, 150 mM NaCl): >99.99%
- activity of cyclic form relative to acyclic form ([1]; gram negative bacteria (E. coli)): about three times more active
- microbicidal activity (killing) [2, 11]: killed
- % killed ([2]; RTD-1 10 mg/ml, 2 h, 37 C., 10 mM Tris HCl, pH 7.4, 150 mM NaCl): >98%
- microbicidal activity (killing) [3, 11]: killed
- % killed [3, 12]: >99.99%
- % killed ([3]; 10 mM Tris HCl, pH 7.4, 150 mM NaCl): >99.99%
- microbicidal activity (killing) [4]: killed
- microbicidal activity (killing) [5, 11]: killed
- % killed [5, 12]: >99.99%
- % killed ([5]; 10 mM Tris-HCl, pH 7.4, 150 mM NaCl): >99.99%
- effect of NaCl on staphylocidal activity ([6]; 10 μg/ml peptide, 2 h, NaCl concentrations as high as 150 mM): little effect
- microbicidal activity (killing) ([6]; 10 mM PIPES, pH 7.4, 5 mM glucose, 37° C., FIG. 9): killed
- % killed ([6]; 2 h, 10 mM PIPES, pH 7.4, 5 mM glucose, 150 mM NaCl, 1-2 × 10^6 CFU/ml): >99%
- % killed ([6]; 2 h, 10 mM Tris-HCl, pH 7.4, 150 mM NaCl): >99.99%
- peptide concentration reducing colony counts to below the level of detection ([6]; 2 h at 37° C. in 10 mM PIPES, pH 7.4): ≥ 4 µg/mL
- % killed ([6]; RTD-1 25 mg/ml, 2 h, 10 mM Tris-HCl, pH 7.4, 50% human AB serum): >99* %
- zone of inhibition [7]: dose dependent increase
- zone of inhibition [8]: dose dependent increase
- zone of inhibition [9, 13]: dose dependent increase
- antibacterial activity compared with the other leukocyte peptides isolated ([9]; screen of purified HPLC peaks): greatest activity
- zone of inhibition [10, 13]: dose dependent increase
- antibacterial activity compared with the other leukocyte peptides isolated ([10]; screen of purified HPLC peaks): greatest activity
